In patent US8907106B2, “Process for the resolution of enantiomers by preferential evaporative crystallization” (Universite de Rouen, priority 2009, dated 2014):

Assay: Solubility of the racemic mixture in methanol
Format: physicochemical

difference in solubility of the racemic mixture between 40° C. and 20° C. (40° C. vs 20° C., in absolute value, solvent of Example 2 is methanol): 0.85%
Solubility of the racemic mixture in the methanol at reflux (methanol at reflux): 23%
SMILES: O=C([O-])C(O)c1ccccc1Cl.[Na+] (racemic) [Sodium 2-chloromandelate]
